Ki data for 7 molecules are collected here from ChEMBL document CHEMBL3286217, “Structure-based efforts to optimize a non-β-lactam inhibitor of AmpC β-lactamase” (Bioorg Med Chem, 2014).

Assay [1] is described as follows: Inhibition of beta-lactamase AmpC (unknown origin) by UV-Vis spectrophotometry.
The nature of assay [2]: Competitive inhibition of beta-lactamase AmpC (unknown origin) by Lineweaver-Burk plot analysis.
A short description of assay [3]: Reversible competitive inhibition of beta-lactamase AmpC (unknown origin).

`O=C(O)c1ccc(CNS(=O)(=O)c2ccsc2C(=O)O)cc1`: in assay [1], the affinity corresponds to a Ki of 18 µM.

Consider `O=C(O)c1sccc1S(=O)(=O)NCc1ccc(Cl)cc1`, for which, in assay [1], the Ki (in general, the dissociation constant of the complex between target and ligand, obtained from inhibition or displacement) was determined as 112 µM.

In the case of `O=C(O)c1ccc(NS(=O)(=O)c2ccsc2C(=O)O)cc1`, the inhibition constant (Ki) in assay [1] is 1.7 µM.

Take `O=C(O)c1ccc(CCNS(=O)(=O)c2ccsc2C(=O)O)cc1`: in assay [2], affinity was put at a Ki of 26 µM.

In assay [1], `O=C(O)c1ccc(CCCNS(=O)(=O)c2ccsc2C(=O)O)cc1` yielded a Ki of 19 µM.

Regarding `Cc1ccc(CNS(=O)(=O)c2ccsc2C(=O)O)cc1`, in assay [1], the Ki was found to be 58 µM.

In assay [3], `O=C(O)c1sccc1S(=O)(=O)Nc1ccc(Cl)cc1` displayed a Ki of 26 µM.
